The experiment concerns the target SIK2 (Homo sapiens, UniProt Q9H0K1). The experiment can be described thus: SIK2 Enzymatic Assay High Version 2 (High ATP). It is filed as biochemical. The conditions noted are these: enzyme 6 nM, 6 mM ATP and 400 μM HDAC5tide (each 2× final concentration); 30 minutes pre-incubation, 2 hours; ADP-Glo Max luminescence; read-out: SIK2 high ATP IC50 (μM) (Test Example 2). Summed up:
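At room temperature, enzyme (6 nM, 2× final) was preincubated with compound for 30 min, then 6 mM ATP and 400 μM HDAC5tide (both 2× final) were added for 2 h. ADP formed was measured by ADP-Glo Max (2 h reagent, 1 h detection) using luminescence.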
(In general: ADP-Glo first removes unused ATP, then detects ADP through luciferase.)

Chain of SIK2 (Q9H0K1 whole entry, species assumed): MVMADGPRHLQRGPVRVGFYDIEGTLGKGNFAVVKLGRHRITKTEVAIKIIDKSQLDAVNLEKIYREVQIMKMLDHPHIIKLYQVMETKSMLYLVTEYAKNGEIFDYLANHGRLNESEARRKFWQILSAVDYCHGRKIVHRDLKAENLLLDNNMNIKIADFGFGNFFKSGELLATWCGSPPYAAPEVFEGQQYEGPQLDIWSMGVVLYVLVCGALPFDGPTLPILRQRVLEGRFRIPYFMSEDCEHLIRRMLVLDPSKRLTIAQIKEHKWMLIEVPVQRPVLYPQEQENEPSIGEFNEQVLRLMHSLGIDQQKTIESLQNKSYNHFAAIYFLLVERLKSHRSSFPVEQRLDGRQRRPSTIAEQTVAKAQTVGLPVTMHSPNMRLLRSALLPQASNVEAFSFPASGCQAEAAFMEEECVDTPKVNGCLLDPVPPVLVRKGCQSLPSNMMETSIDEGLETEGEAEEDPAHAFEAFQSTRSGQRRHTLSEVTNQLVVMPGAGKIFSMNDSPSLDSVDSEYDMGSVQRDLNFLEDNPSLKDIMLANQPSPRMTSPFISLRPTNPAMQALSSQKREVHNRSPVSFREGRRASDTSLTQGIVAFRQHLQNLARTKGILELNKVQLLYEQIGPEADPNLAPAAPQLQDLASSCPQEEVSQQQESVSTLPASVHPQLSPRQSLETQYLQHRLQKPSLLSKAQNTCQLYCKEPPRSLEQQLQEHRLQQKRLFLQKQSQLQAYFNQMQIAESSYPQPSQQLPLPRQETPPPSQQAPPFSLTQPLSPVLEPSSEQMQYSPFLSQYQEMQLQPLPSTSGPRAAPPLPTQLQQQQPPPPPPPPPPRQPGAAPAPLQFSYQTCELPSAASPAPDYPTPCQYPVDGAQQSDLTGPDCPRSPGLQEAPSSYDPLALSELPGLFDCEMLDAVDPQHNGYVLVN

Turning to `CC(C)(C#N)COc1cnc(OC(F)F)cc1-c1ccn2nc(Nc3ccc(C(C)(C)O)nn3)cc2c1` [Example 712, 3-[[6-(difluoromethoxy)-4-[2-[[6-(1-hydroxy-1-methyl-ethyl)pyridazin-3-yl]amino]pyrazolo[1,5-a]pyridin-5-yl]-3-pyridyl]oxy]-2,2-dimethyl-propanenitrile], the concentration for half-maximal inhibition (IC50) (in general, the midpoint of a concentration-inhibition curve) is 0.00411 µM.

In the case of `CC(C)(C#N)COc1cnc(OC(F)F)cc1-c1ccn2nc(Nc3cnc(C(C)(C)O)cn3)cc2c1` [Example 713, 3-[[6-(difluoromethoxy)-4-[2-[[5-(1-hydroxy-1-methyl-ethyl)pyrazin-2-yl]amino]pyrazolo[1,5-a]pyridin-5-yl]-3-pyridyl]oxy]-2,2-dimethyl-propanenitrile], the half-maximal inhibitory concentration (IC50) was determined as 0.00746 µM.

Turning to `Cn1ccc(Nc2cc3cc(-c4cc(OC(F)F)ncc4OCC(C)(C)C#N)ccn3n2)n1` [Example 714, 3-[[6-(difluoromethoxy)-4-[2-[(1-methylpyrazol-3-yl)amino]pyrazolo[1,5-a]pyridin-5-yl]-3-pyridyl]oxy]-2,2-dimethyl-propanenitrile], the IC50 stood at 0.00617 µM.

With `CNC(=O)c1cc(C)nc(Nc2cc3cc(-c4cc(OC(F)F)ncc4OCC(C)(C)C#N)ccn3n2)c1` [Example 715, 2-[[5-[5-(2-cyano-2-methyl-propoxy)-2-(difluoromethoxy)-4-pyridyl]pyrazolo[1,5-a]pyridin-2-yl]amino]-N,6-dimethyl-pyridine-4-carboxamide], the 50% inhibitory concentration (IC50) turned out to be 0.011 µM.

In the case of `CC(C)(C#N)COc1cnc(OC(F)F)cc1-c1ccn2nc(Nc3cc4c(cn3)CNCC4)cc2c1` [Example 716, 3-[[6-(difluoromethoxy)-4-[2-(5,6,7,8-tetrahydro-2,7-naphthyridin-3-ylamino)pyrazolo[1,5-a]pyridin-5-yl]-3-pyridyl]oxy]-2,2-dimethyl-propanenitrile], the IC50 came to 0.0118 µM.

Turning to `Cc1nccc(Nc2cc3cc(-c4cc(OC(F)F)ncc4OCC(C)(C)C#N)ccn3n2)n1` [Example 717, 3-[[6-(difluoromethoxy)-4-[2-[(2-methylpyrimidin-4-yl)amino]pyrazolo[1,5-a]pyridin-5-yl]-3-pyridyl]oxy]-2,2-dimethyl-propanenitrile], the IC50 is 0.00142 µM.

Regarding `CC(C)(C#N)COc1cnc(OC(F)F)cc1-c1ccn2nc(Nc3cc4c(cn3)CCNC4)cc2c1` [Example 718, 3-[[6-(difluoromethoxy)-4-[2-(5,6,7,8-tetrahydro-2,6-naphthyridin-3-ylamino)pyrazolo[1,5-a]pyridin-5-yl]-3-pyridyl]oxy]-2,2-dimethyl-propanenitrile], the concentration for half-maximal inhibition (IC50) stood at 0.0182 µM.

In the case of `CC(C)(C#N)COc1cnc(OC(F)F)cc1-c1ccn2nc(Nc3ccc4c(n3)CNCC4)cc2c1` [Example 719, 3-[[6-(difluoromethoxy)-4-[2-(5,6,7,8-tetrahydro-1,7-naphthyridin-2-ylamino)pyrazolo[1,5-a]pyridin-5-yl]-3-pyridyl]oxy]-2,2-dimethyl-propanenitrile], the half-maximal inhibitory concentration (IC50) amounted to 0.0216 µM.

`Cc1cc(Nc2cc3cc(-c4cc(OC(F)F)ncc4OCC4(C#N)CC4)ccn3n2)nc(C)n1` [Example 720, 1-[[6-(difluoromethoxy)-4-[2-[(2,6-dimethylpyrimidin-4-yl)amino]pyrazolo[1,5-a]pyridin-5-yl]-3-pyridyl]oxymethyl]cyclopropanecarbonitrile]: the half-maximal inhibitory concentration (IC50) came out at 0.00954 µM.

Take `Cc1cc(-c2ccn3nc(Nc4cc(C)nc(C)n4)cc3c2)c(OCCC2(C#N)COC2)cn1` [Example 722, 3-[2-[[4-[2-[(2,6-dimethylpyrimidin-4-yl)amino]pyrazolo[1,5-a]pyridin-5-yl]-6-methyl-3-pyridyl]oxy]ethyl]oxetane-3-carbonitrile]: the IC50 is 0.01 µM.

Consider `O=C(Nc1cc2cc(-c3cc(OC(F)F)ncc3O[C@H]3CC[C@H](O)CC3)ccn2n1)C1CC1` [Example 723, N-[5-[2-(difluoromethoxy)-5-(4-hydroxycyclohexoxy)-4-pyridyl]pyrazolo[1,5-a]pyridin-2-yl]cyclopropanecarboxamide], for which the half-inhibitory concentration (IC50) amounted to 0.00163 µM.

Take `CC(C)(C#N)COc1cnc(OCC#N)cc1-c1ccn2nc(NC(=O)C3CC3)cc2c1` [Example 724, N-[5-[2-(cyanomethoxy)-5-(2-cyano-2-methyl-propoxy)-4-pyridyl]pyrazolo[1,5-a]pyridin-2-yl]cyclopropanecarboxamide]: the IC50 is 0.0155 µM.

On to `CNc1nc(C)cc(Nc2cc3cc(-c4cc(OCC(F)F)ncc4OCC(C)(C)C#N)ccn3n2)n1` [Example 725, 3-[[6-(2,2-difluoroethoxy)-4-[2-[[6-methyl-2-(methylamino)pyrimidin-4-yl]amino]pyrazolo[1,5-a]pyridin-5-yl]-3-pyridyl]oxy]-2,2-dimethyl-propanenitrile], for which the half-inhibitory concentration (IC50) was found to be 0.00405 µM.

Regarding `Cc1cc(Nc2cc3cc(-c4cc(OC(F)F)ncc4OCC(C)(C)C(N)=O)ccn3n2)nc(C)n1` [Example 727, 3-[[6-(difluoromethoxy)-4-[2-[(2,6-dimethylpyrimidin-4-yl)amino]pyrazolo[1,5-a]pyridin-5-yl]-3-pyridyl]oxy]-2,2-dimethyl-propanamide], the IC50 is 0.0152 µM.

Regarding `Cc1cc(Nc2cc3cc(-c4cc(OC(F)F)ncc4OCC(C)(C)C(=O)N(C)C)ccn3n2)nc(C)n1` [Example 728, 3-[[6-(difluoromethoxy)-4-[2-[(2,6-dimethylpyrimidin-4-yl)amino]pyrazolo[1,5-a]pyridin-5-yl]-3-pyridyl]oxy]-N,N,2,2-tetramethyl-propanamide], the IC50 turned out to be 0.0049 µM.

With `Cc1cc(Nc2cc3cc(-c4cc(OCC(F)F)ncc4OCC(C)(C)C#N)ccn3n2)nn(C2CC2)c1=O` [Example 730, 3-[[4-[2-[(1-cyclopropyl-5-methyl-6-oxo-pyridazin-3-yl)amino]pyrazolo[1,5-a]pyridin-5-yl]-6-(2,2-difluoroethoxy)-3-pyridyl]oxy]-2,2-dimethyl-propanenitrile], the IC50 came to 0.0154 µM.

In the case of `Cc1cc(Nc2cc3cc(-c4cc(OC(F)F)ncc4OCC(C)(C)C(=O)N(C)C)ccn3n2)nc(C)n1` [Example 735, 3-[[6-(difluoromethoxy)-4-[2-[(2,6-dimethylpyrimidin-4-yl)amino]pyrazolo[1,5-a]pyridin-5-yl]-3-pyridyl]oxy]-N,N,2,2-tetramethyl-propanamide], the 50% inhibitory concentration (IC50) came to 0.00911 µM.

Consider `Cc1cc(Nc2cc3cc(-c4cc(OCC(F)F)ncc4OCC(C)(C)C#N)ccn3n2)nn(C2CC2)c1=O` [Example 737, 3-((4-(2-((1-cyclopropyl-5-methyl-6-oxo-1,6-dihydropyridazin-3-yl)amino)pyrazolo[1,5-a]pyridin-5-yl)-6-(2,2-difluoroethoxy)pyridin-3-yl)oxy)-2,2-dimethylpropanenitrile], for which the concentration for half-maximal inhibition (IC50) came out at 0.014 µM.

On to `Cc1cc(Nc2cc3cc(-c4cc(OC(F)(F)F)ccc4OCC(C)(C)C#N)ccn3n2)nc(C)n1` [Example 754, 3-[2-[2-[(2,6-dimethylpyrimidin-4-yl)amino]pyrazolo[1,5-a]pyridin-5-yl]-4-(trifluoromethoxy)phenoxy]-2,2-dimethyl-propanenitrile], for which the half-maximal inhibitory concentration (IC50) was 0.071 µM.

“(*S)-4-[[6-(difluoromethoxy)-4-[2-[(2,6-dimethylpyrimidin-4-yl)amino]pyrazolo[1,5-a]pyridin-5-yl]-3-pyridyl]oxymethyl]-1,5,5-trimethyl-pyrrolidin-2-one [Example 734]”: the half-maximal inhibitory concentration (IC50) came out at 0.00307 µM.

These data come from US20240158392A1 (Janssen Biotech, Inc., priority 2021, published 2024).
